Read-outs that look alike come from different tables or passages of the source.
Assays:
[1] = Cytotoxicity assay (CellTox Green Dye, IncuCyte); assay type: cell-based; details: indicative, from AUC vs concentration (2-100 μM), read-out: Cytotoxic effect (EC50)
Experimental: Cell lines SH-SY5Y (ACC 209), DU145 (ACC 261), LNCaP (ACC 256) and NIH-3T3 (ACC 59) were purchased from DSMZ (Germany). MDA-MB-435S (HTB 129) and hTERT RPE-1 (CRL 4000) were obtained from ATCC (USA). Cell lines were cultured in their recommended media Supplemented with 10% or 15% FCS (PAA laboratories, Germany) at 37°C in humidified 5% CO2 atmosphere. All media were purchased from ThermoFisher Scientific (Waltham, Massachusetts, United States).
Cell proliferation, cytotoxicity and apoptosis were assessed in a 96-well microtiter plate by live-cell imaging using an IncuCyte Zoom System (Essen BioScience, UK). Cell proliferation was monitored in terms of cell confluency (%). Cell cytotoxicity was assessed by the CellTox Green Dye assay (Promega, Madison, Wisconsin, USA). The Incucyte Caspase-3/7 apoptosis assay (Essen BioScience, UK) was used to evaluate the effect of compound 5 on the apoptotic pathway. As negative controls media supplemented with 0.05% of DMSO were used.
Live-cell imaging data were collected from the IncuCyte Zoom software and analyzed using GraphPad Prism 5 software. Proliferation was measured as Phase Object Confluence (%), cytotoxicity and apoptosis were measured as Green Object Count (1/mm^2). All data are represented as mean S.E.M of n = 6 different wells.
The following concentrations of compound 5 were added to the different cell lines, 100 μM, 50 μM, 20 μM, 10 μM, 5 μM and 2 μM to assess its effect on cell proliferation (S1 Fig) and cytotoxicity (S2 Fig). Indicative IC50-values for the proliferation assays were obtained by plotting the areas under the curve (AUC × 10^3) against the tested compound 5 concentrations and by fitting the curve with a logistic dose-response equation. The EC50-values for the cytotoxicity assays were calculated correspondingly (S3 Fig). Although more data points would be necessary to calculate precise IC50 and EC50-values, it is clear that compound 5 inhibits the proliferation and induces cytotoxicity in all the tested cell lines in the low to middle micromolar range.

melting point: 79 to 81 °C
SMILES: COc1ccc(C(=O)NCCc2cc(Br)c(OCCCN(C)C)c(Br)c2)cc1Cl [Compound 5, 3-Chloro-N-[3,5-dibromo-4-[3-(dimethylamino)propoxy]phenethyl]-4-methoxybenzamide]
EC50 ([1]; human, DU145 cells): 60.4 µM | EC50 ([1]; human, LNCaP cells): 40.4 µM | EC50 ([1]; human, MDA-MB-435S cells): 16.5 µM | EC50 ([1]; human, SH-SY5Y cells): 15.3 µM | EC50 ([1]; human, hTERT RPE-1 cells): 15.6 µM | EC50 ([1]; mouse, NIH-3T3 cells): 4.58 µM

Reference: publication PMC5722316, “Synthesis of novel purpurealidin analogs and evaluation of their effect on the cancer-relevant potassium channel KV10.1” (PLoS ONE, 2017)
